The results in this text go back to patent US20200385371A1 (Propellon Therapeutics Inc., priority 2017, published 2020).

Assay [1] deals with T1, WDR5 (Homo sapiens, UniProt P61964). Kind of assay: Surface Plasmon Resonance (SPR) assay. Type of assay: binding. On the set-up: Full length WDR5 with an N-terminal His tag and C-terminal AviTag; His tag (N); made in house; host or cells: E. coli. The note with it: read-out: SPR Kd. On the procedure:
Exemplary compounds of the application were dissolved in 100% DMSO at 10 mM, assayed fresh, and then stored at −20° C. for repeat studies and other experiments. Full length WDR5 with an N-terminal His tag and C-terminal AviTag (Avidity Inc.) was expressed in E. coli with coexpression of BirA to biotin label the protein in vivo. Purification was via Ni-NTA.
SPR studies were performed using a Biacore™ T200 instrument (GE Health Sciences Inc.). Biotinylated WDR5 protein (approximately 3000RU) was stably captured to streptavidin coupled SA chips according to the manufacture's protocol (GE Health Sciences Inc.). The running buffer used was HBS-EP (20 mM Hepes pH 7.4, 150 mM NaCl, 3 mM EDTA, 0.05% P-20) plus 5% DMSO with a flow rate of 40 μl/min. For SPR analysis, 5 different concentrations of each exemplary compound of the application were sprayed into 96 or 384 well plates using an HP D300 digital dispenser. The concentration ranged from about 195 nM to about 12 nM in a two-fold series. […] Curve fitting and KD calculations were performed with the Biacore T200 Evalutation software (GE Health Sciences Inc).

For assay [2], the target named is T1, WDR5. Description: Fluorescence Polarization (FP) binding assay. On the procedure:
H3 (1-15) ([…]), and 9-Ala-FAM ((Ac)-[…]-(Ahx-Ahx)-K(5,6-FAM)) (where Ahx represents 6 amino hexanoic acid linkers) peptides for WDR5 were synthesized, N-terminal-labeled with isothiocyanate-fluorescein, and purified by Tufts University Core Services (Boston, Mass.). Compound binding assays were performed at a constant labeled peptide concentration of 30 or 20 nM for H3 (1-15) and 9-Ala-FAM respectively. WDR5 concentrations of 0.3 μM for H3 (1-15) and 0.05 μM for 9-Ala-FAM were used. For both the H3 (1-15) and 9-Ala-FAM peptides, 80 mM sodium phosphate buffer (pH 6.5), 20 mM KCl, and 0.008% Triton X-100 was used. For the H3 (1-15) peptide, FP assays were measured in 10 μl aliquots in 384-well Axygen plates using a Synergy 4 microplate reader (BioTek) with an excitation wavelength of 485 nm and emission wavelength of 528 nm. For the 9-Ala-FAM peptide, FP assays were measured in 125 μl aliquots in 96 well Microfluor plates using a ViewLux instrument (Perkin Elmer) with an excitation wavelength of 480 nm and emission wavelength of 540 nm. To determine Kdsp values, the data were fit to a hyperbolic function using Sigma Plot software (Systat Software). The Kdisp values represent the average of quadruplicate measurements.
In general terms: Fluorescence polarisation rises when a labelled molecule tumbles more slowly, as on binding a larger partner.

For another assay, the system named is MV4-11 cells. Description: Cell proliferation assay (ATPlite). The note with it: Homo sapiens, 120 h; MV4-11 cells, five days; read-out: GI MV411 EC50. The assay is classed as cell-based. The method, then:
MV4-11 cells were seeded into a 96-well plate at 1,000 cells/well in 150 μl medium (Alpha-MEM containing 10% FBS, 100 μg/ml Normocin, and 50 μg/ml Gentamycin, Invitrogen). A HP D300 digital dispenser was used to dose cells with DMSO or test compounds across a 10-point range of concentrations (high dose of 10 μM), and cultures were grown in a humidified 5% CO2 incubator at 37° C. After five days, plates were removed from incubator and equilibrated to room temperature. An equal volume of ATPlite assay reagent was added to each well, and samples were processed according to manufacturer's instructions (Perkin Elmer). Luminescent signal was measured using an Envision plate reader equipped with a US-Luminescence detector.
A general note: ATP-based viability assays read luminescence as a measure of living cells.

One may read the Kd as the concentration at which binding is half-saturated. A word on the IC50: it is the concentration at which inhibition is half-maximal. Usually EC50 stands for the concentration giving half of the maximal effect. For the compound `C[C@@H]1CN(c2cc(F)c(-c3cc(C(N)=O)c(F)cc3F)c(F)c2NC(=O)c2c[nH]c(=O)cc2C(F)(F)F)C[C@H](C)N1C` [Example 30, N-(5′-carbamoyl-2,2′,4′,6-tetrafluoro-4-((3S,5R)-3,4,5-trimethylpiperazin-1-yl)-[1,1′-biphenyl]-3-yl)-6-oxo-4-(trifluoromethyl)-1,6-dihydropyridine-3-carboxamide], the equilibrium dissociation constant (Kd) at WDR5 [1] worked out at 23.6 nM. Further, the IC50 on WDR5 [2] stood at 85.9 nM. Also, the EC50 in the assay with MV4-11 cells was 18500 nM.

As for `C[C@@H]1CN(c2cc(F)c(-c3cnc(N4CCOCC4)nc3)c(F)c2NC(=O)c2ccc(F)cc2C(F)F)C[C@H](C)N1C` [Example 31, N-(2,4-difluoro-3-(2-morpholinopyrimidin-5-yl)-6-((3S,5R)-3,4,5-trimethylpiperazin-1-yl)phenyl)-2-(difluoromethyl)-4-fluorobenzamideformic Acid], the equilibrium dissociation constant (Kd) at WDR5 [1] is 1.04 nM. Besides, the IC50 at WDR5 [2] was determined as 19.6 nM. In addition, the 50% effective concentration (EC50) in the assay on MV4-11 cells is 96.6 nM.

Regarding `C[C@@H]1CN(c2nccc(-c3c(F)cc(N4CCN(C)[C@@H](C)C4)c(NC(=O)c4ccc(F)cc4C(F)F)c3F)n2)C[C@H](C)O1` [Example 32, 2-(Difluoromethyl)-N-(3-(2-((2S,6R)-2,6-dimethylmorpholino)pyrimidin-4-yl)-6-((S)-3,4-dimethylpiperazin-1-yl)-2,4-difluorophenyl)-4-fluorobenzamide Formic Acid], the Kd at WDR5 [1] was determined as 5.07 nM. For the same compound, the IC50 on WDR5 [2] is 33 nM. Moreover, the EC50 in the assay with MV4-11 cells was found to be 286 nM.

As to `C[C@@H]1CN(c2ncc(-c3c(F)cc(N4CCN(C)[C@@H](C)C4)c(NC(=O)c4c[nH]c(=O)cc4C(F)F)c3F)cn2)C[C@H](C)O1` [Example 33, 4-(Difluoromethyl)-N-(3-(2-((2S,6R)-2,6-dimethylmorpholino)pyrimidin-5-yl)-6-((S)-3,4-dimethylpiperazin-1-yl)-2,4-difluorophenyl)-6-oxo-1,6-dihydropyridine-3-carboxamide], on WDR5 [1], the Kd came to 0.61 nM. Moreover, the IC50 on WDR5 [2] stood at 14.9 nM. In addition, in the assay with MV4-11 cells, the concentration for a half-maximal effect (EC50) stood at 14.5 nM.

For the compound `CC(C)OC(=O)N1CC=C(c2c(F)cc(N3CCN(C)[C@@H](C)C3)c(NC(=O)c3c[nH]c(=O)cc3C(F)F)c2F)CC1` [Example 34, Isopropyl (S)-4-(3-(4-(difluoromethyl)-6-oxo-1,6-dihydropyridine-3-carboxamido)-4-(3,4-dimethylpiperazin-1-yl)-2,6-difluorophenyl)-3,6-dihydropyridine-1(2H)-carboxylate], at WDR5 [1], the Kd worked out at 2.02 nM. On WDR5 [2], the IC50 was 22 nM. Further, the EC50 with MV4-11 cells is 44.4 nM.

Consider `CC(C)OC(=O)N1CCC=C(c2c(F)cc(N3CCN(C)[C@@H](C)C3)c(NC(=O)c3c[nH]c(=O)cc3C(F)F)c2F)C1` [Example 35, Isopropyl (S)-5-(3-(4-(difluoromethyl)-6-oxo-1,6-dihydropyridine-3-carboxamido)-4-(3,4-dimethylpiperazin-1-yl)-2,6-difluorophenyl)-3,6-dihydropyridine-1(2H)-carboxylate], for which the Kd on WDR5 [1] was found to be 6.29 nM. Besides, on WDR5 [2], the IC50 was 29.4 nM. In the assay on MV4-11 cells, the concentration giving a half-maximal response (EC50) stood at 409 nM.

With `CC(C)OC(=O)N1CC=C(c2c(F)cc(N3CCN(C)[C@@H](C)C3)c(NC(=O)c3c[nH]c(=O)cc3C(F)F)c2F)C1` [Example 36, Isopropyl (S)-3-(3-(4-(difluoromethyl)-6-oxo-1,6-dihydropyridine-3-carboxamido)-4-(3,4-dimethylpiperazin-1-yl)-2,6-difluorophenyl)-2,5-dihydro-H-pyrrole-1-carboxylate], the equilibrium dissociation constant (Kd) on WDR5 [1] was determined as 1.04 nM. The IC50 at WDR5 [2] is 13.2 nM. Besides, the EC50 in the assay with MV4-11 cells was found to be 54.5 nM.

`CC(C)OC(=O)N1CC=C(c2c(F)cc(N3CCN(C)[C@@H](C)C3)c(NC(=O)c3c[nH]c(=O)cc3C(F)(F)F)c2F)C1` [Example 37, Isopropyl (S)-3-(4-(3,4-dimethylpiperazin-1-yl)-2,6-difluoro-3-(6-oxo-4-(trifluoromethyl)-1,6-dihydropyridine-3-carboxamido)phenyl)-2,5-dihydro-1H-pyrrole-1-carboxylate]: the Kd on WDR5 [1] stood at 2.24 nM. Also, the IC50 on WDR5 [2] was found to be 16.2 nM. In addition, in the assay with MV4-11 cells, the EC50 came to 108 nM.

Regarding `CC(C)OC(=O)N1CCC=C(c2c(F)cc(N3CCN(C)[C@@H](C)C3)c(NC(=O)c3c[nH]c(=O)cc3C(F)(F)F)c2F)C1` [Example 38, Isopropyl (S)-5-(4-(3,4-dimethylpiperazin-1-yl)-2,6-difluoro-3-(6-oxo-4-(trifluoromethyl)-1,6-dihydropyridine-3-carboxamido)phenyl)-3,6-dihydropyridine-1(2H)-carboxylate], the Kd at WDR5 [1] turned out to be 16.4 nM. In addition, the IC50 on WDR5 [2] worked out at 17.4 nM. Further, the EC50 in the assay with MV4-11 cells was 185 nM.

In the case of `CC(C)OC(=O)N1CC=C(c2c(F)cc(N3CCN(C)[C@@H](C)C3)c(NC(=O)c3c[nH]c(=O)cc3C(F)(F)F)c2F)CC1` [Example 39, Isopropyl (S)-4-(4-(3,4-dimethylpiperazin-1-yl)-2,6-difluoro-3-(6-oxo-4-(trifluoromethyl)-1,6-dihydropyridine-3-carboxamido)phenyl)-3,6-dihydropyridine-1(2H)-carboxylate], the Kd on WDR5 [1] was found to be 1.58 nM. On WDR5 [2], the concentration for half-maximal inhibition (IC50) came out at 15.2 nM. Moreover, the EC50 with MV4-11 cells is 35.4 nM.

Take `C[C@@H]1CN(c2cc(F)c(-c3cnc(N4CCOCC4)nc3)c(F)c2NC(=O)c2cn(C)c(=O)cc2C(F)F)C[C@H](C)N1C` [Example 40, N-(2,4-difluoro-3-(2-morpholinopyrimidin-5-yl)-6-((3S,5R)-3,4,5-trimethylpiperazin-1-yl)phenyl)-4-(difluoromethyl)-1-methyl-6-oxo-1,6-dihydropyridine-3-carboxamide]: at WDR5 [1], the Kd came to 2.85 nM. The concentration for half-maximal inhibition (IC50) on WDR5 [2] was 20.1 nM. For the same compound, in the assay with MV4-11 cells, the EC50 was 286 nM.

On to `C[C@@H]1CN(c2cc(F)c(-c3cnc(N4CCOCC4)nc3)c(F)c2NC(=O)c2c[nH]c(=O)cc2C(F)F)C[C@H](C)N1C` [Example 41, N-(2,4-difluoro-3-(2-morpholinopyrimidin-5-yl)-6-((3S,5R)-3,4,5-trimethylpiperazin-1-yl)phenyl)-4-(difluoromethyl)-6-oxo-1,6-dihydropyridine-3-carboxamide], for which the Kd on WDR5 [1] worked out at 0.84 nM. For the same compound, the IC50 at WDR5 [2] came out at 7.1 nM. Moreover, the half-maximal effective concentration (EC50) in the assay on MV4-11 cells turned out to be 48.8 nM.

In the case of `C[C@H]1CN(c2cc(F)c(C3=CCN(C(=O)OC4CC(F)(F)C4)CC3)c(F)c2NC(=O)c2c[nH]c(=O)cc2C(F)F)CCN1C` [Example 42, 3,3-Difluorocyclobutyl (S)-4-(3-(4-(difluoromethyl)-6-oxo-1,6-dihydropyridine-3-carboxamido)-4-(3,4-dimethylpiperazin-1-yl)-2,6-difluorophenyl)-3,6-dihydropyridine-1(2H)-carboxylate], the Kd on WDR5 [1] turned out to be 2.38 nM. Further, at WDR5 [2], the IC50 came to 11.2 nM. In the assay on MV4-11 cells, the EC50 came out at 281 nM.

On to `C[C@H]1CN(c2cc(F)c(C3=CCCN(C(=O)OC4CC(F)(F)C4)C3)c(F)c2NC(=O)c2c[nH]c(=O)cc2C(F)F)CCN1C` [Example 43, 3,3-Difluorocyclobutyl (S)-5-(3-(4-(difluoromethyl)-6-oxo-1,6-dihydropyridine-3-carboxamido)-4-(3,4-dimethylpiperazin-1-yl)-2,6-difluorophenyl)-3,6-dihydropyridine-1(2H)-carboxylate], for which the Kd on WDR5 [1] was 1.7 nM. Also, at WDR5 [2], the 50% inhibitory concentration (IC50) stood at 15.9 nM. Further, in the assay with MV4-11 cells, the half-maximal effective concentration (EC50) was 653 nM.

For the compound `C[C@H]1CN(c2cc(F)c(C3=CCN(C(=O)OC4CC(F)(F)C4)C3)c(F)c2NC(=O)c2c[nH]c(=O)cc2C(F)F)CCN1C` [Example 44], the Kd on WDR5 [1] turned out to be 2.32 nM. For the same compound, the IC50 at WDR5 [2] stood at 14.4 nM. For the same compound, in the assay on MV4-11 cells, the concentration for a half-maximal effect (EC50) turned out to be 180 nM.
